From PMC11973759 (Journal for Immunotherapy of Cancer, 2025)

System: M2 macrophages
Assay type: cell-based, human
Settings: inhibitor 30 min, TB511 1 µM 1 h, 24 h fresh medium, n=3

Compound	Effect of inhibitor on TB511-induced apoptosis (CCK8)
CN(C)CCCN1c2ccccc2Sc2ccc(Cl)cc21 [CPZ, chlorpromazine]	decreasing TB511-induced apoptosis
C=C1[C@@H](C)[C@H]2[C@H](Cc3ccccc3)NC(=O)[C@]23[C@H](OC(C)=O)/C=C/[C@@](C)(O)C(=O)[C@@H](C)C/C=C/[C@H]3[C@@H]1O [CyD, cytochalasin D]	decreasing TB511-induced apoptosis
